The text below walks through data of the supplement of paper PMC10307832.

What all share (assay): relative viability (nuclei count vs DMSO), 5 days (fraction); higher = more cells survive
Compound in the assay “Selisistat + Luminespib”: C1CC(C2=C(C1)C3=C(N2)C=CC(=C3)Cl)C(=O)N [Selisistat] + CCNC(=O)c1noc(-c2cc(C(C)C)c(O)cc2O)c1-c1ccc(CN2CCOCC2)cc1 [Luminespib] (partner 0.01 µM)
The gist of the method: (§1)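 Relative viability equals treated-well nuclei counts divided by vehicle-well nuclei counts. Counts came from 4× images of lung cancer cell lines grown in 1536-well plates for 5 days after pin-tool dosing on the day after seeding. Dosing used one drug alone or a fixed anchor-drug dose plus five library-drug doses (not always all listed) in √10 steps, and values are medians of duplicate plates.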

Compound in the assay “Serdemetan + Olaparib”: c1ccc2c(CCNc3ccc(Nc4ccncc4)cc3)c[nH]c2c1 [Serdemetan] + O=C(c1cc(Cc2n[nH]c(=O)c3ccccc23)ccc1F)N1CCN(C(=O)C2CC2)CC1 [Olaparib] (partner 8 µM)
The gist of the method:
as §1

Compound in the assay “Serdemetan + Phenformin”: c1ccc2c(CCNc3ccc(Nc4ccncc4)cc3)c[nH]c2c1 [Serdemetan] + N=C(N)NC(=N)NCCc1ccccc1 [Phenformin] (partner 250 µM)
In a few lines: as §1

Compound in the assay “Serdemetan + Palbociclib”: c1ccc2c(CCNc3ccc(Nc4ccncc4)cc3)c[nH]c2c1 [Serdemetan] + CC(=O)c1c(C)c2cnc(Nc3ccc(N4CCNCC4)cn3)nc2n(C2CCCC2)c1=O [Palbociclib] (partner 0.5 µM)
In a few lines: as §1

As to UMC-11, the relative viability is 1.03 in the assay with Selisistat + Luminespib (first compound 0.4 µM); 0.931 in the assay with Selisistat + Luminespib (first compound 1.265 µM); 0.896 in the assay with Selisistat + Luminespib (first compound 4 µM); 1.09 with Selisistat + Luminespib (first compound 12.65 µM); 1 with Selisistat + Luminespib (first compound 40 µM); 0.345 with Serdemetan + Olaparib (first compound 0.04 µM). The relative viability with Serdemetan + Olaparib (first compound 0.1265 µM) was determined as 0.332; with Serdemetan + Olaparib (first compound 0.4 µM), 0.319; with Serdemetan + Olaparib (first compound 1.265 µM), 0.255; with Serdemetan + Olaparib (first compound 4 µM), 0.593; with Serdemetan + Phenformin (first compound 0.04 µM), 0.312; with Serdemetan + Phenformin (first compound 0.1265 µM), 0.31. Moreover, the relative viability amounted to 0.321 in the assay with Serdemetan + Phenformin (first compound 4 µM); 0.333 with Serdemetan + Palbociclib (first compound 0.04 µM); 0.343 in the assay with Serdemetan + Palbociclib (first compound 0.1265 µM); 0.381 with Serdemetan + Palbociclib (first compound 0.4 µM); 0.344 with Serdemetan + Palbociclib (first compound 1.265 µM); 0.281 in the assay with Serdemetan + Palbociclib (first compound 4 µM).
